Measurements as given in ChEMBL document CHEMBL3885861, “Open TG-GATES”.

Species on record: Rattus norvegicus
Assay: Open TG-GATES - Regimen: Single
Format: toxicity, organism-based, Sprague-Dawley
Set-up: regimen Single, gender Male, age 6 weeks
Details: in vivo, po, 30 mg/kg, route gavage, dose level Low; for APTT / Bas / Eos / Fbg / Hb / Ht / Lym / MCH / MCHC / MCV / Mono / Neu / PT / Plat / RBC / Ret / WBC: tissue Blood; for KIDNEY_L / KIDNEY_R / KIDNEY_TOTAL: tissue Kidney; for LIVER: tissue Liver; for A/G / ALP / ALT / AST / BUN / CRE / Ca / Cl / DBIL / GLC / IP / K / LDH / Na / PL / RALB / TBIL / TC / TG / TP / gamma-GTP: tissue Plasma

## CCOC(=O)C(C)(C)Oc1ccc(Cl)cc1 [CLOFIBRATE]
3 h
  TERMINAL_BW: 228.4 g
  APTT: 19.1 s
  Bas: 0%
  Eos: 1%
  Fbg: 234.4 mg/dL
  Hb: 13.3 g/dL
  Ht: 38.4%
  Lym: 80.4%
  MCH: 21.8 pg
  MCHC: 34.6%
  MCV: 62.9 fL
  Mono: 2.6%
  Neu: 15.6%
  PT: 12.3 s
  Plat: 121.4 x10_4/uL
  RBC: 611.2 x10_4/ul
  Ret: 7.5%
  WBC: 87.8 x10_2/uL
  KIDNEY_L: 1 g
  KIDNEY_R: 1 g
  KIDNEY_TOTAL: 2 g
  LIVER: 10.5 g
  A/G: 1.6
  ALP: 1038.6 IU/L
  ALT: 38.8 IU/L
  AST: 71 IU/L
  BUN: 12.2 mg/dL
  CRE: 0.3 mg/dL
  Ca: 11.2 mg/dL
  Cl: 102.4 meq/L
  DBIL: 0.4 mg/dL
  GLC: 199.2 mg/dL
  IP: 9 mg/dL
  K: 3.9 meq/L
  LDH: 199.6 IU/L
  Na: 139.6 meq/L
  PL: 178.4 mg/dL
  RALB: 3.4 g/dL
  TBIL: 0.4 mg/dL
  TC: 84 mg/dL
  TG: 194 mg/dL
  TP: 5.6 g/dL
  gamma-GTP: 1.2 IU/L
6 h
  TERMINAL_BW: 224.5 g
  APTT: 18.6 s
  Bas: 0%
  Eos: 1%
  Fbg: 230 mg/dL
  Hb: 13.5 g/dL
  Ht: 38.9%
  Lym: 78.4%
  MCH: 21.7 pg
  MCHC: 34.7%
  MCV: 62.5 fL
  Mono: 2.6%
  Neu: 17.2%
  PT: 12.3 s
  Plat: 125.7 x10_4/uL
  RBC: 623.2 x10_4/ul
  Ret: 7.3%
  WBC: 115.7 x10_2/uL
  KIDNEY_L: 1 g
  KIDNEY_R: 1 g
  KIDNEY_TOTAL: 1.9 g
  LIVER: 9.8 g
  A/G: 1.6
  ALP: 1119.8 IU/L
  ALT: 35.4 IU/L
  AST: 69.2 IU/L
  BUN: 7.8 mg/dL
  CRE: 0.4 mg/dL
  Ca: 10.7 mg/dL
  Cl: 103.8 meq/L
  DBIL: 0.1 mg/dL
  GLC: 194.6 mg/dL
  IP: 9 mg/dL
  K: 4 meq/L
  LDH: 273 IU/L
  Na: 140.8 meq/L
  PL: 143.6 mg/dL
  RALB: 3.5 g/dL
  TBIL: 0.2 mg/dL
  TC: 73 mg/dL
  TG: 88 mg/dL
  TP: 5.7 g/dL
  gamma-GTP: 1.4 IU/L
9 h
  TERMINAL_BW: 223 g
  APTT: 18.8 s
  Bas: 0%
  Eos: 1%
  Fbg: 228.4 mg/dL
  Hb: 13.2 g/dL
  Ht: 37.7%
  Lym: 79.8%
  MCH: 21.5 pg
  MCHC: 34.9%
  MCV: 61.7 fL
  Mono: 3.2%
  Neu: 15.8%
  PT: 12.8 s
  Plat: 137.4 x10_4/uL
  RBC: 611.4 x10_4/ul
  Ret: 7.4%
  WBC: 101.8 x10_2/uL
  KIDNEY_L: 1 g
  KIDNEY_R: 1 g
  KIDNEY_TOTAL: 1.9 g
  LIVER: 9.1 g
  A/G: 1.6
  ALP: 814.2 IU/L
  ALT: 27.6 IU/L
  AST: 61.4 IU/L
  BUN: 11.2 mg/dL
  CRE: 0.4 mg/dL
  Ca: 10.5 mg/dL
  Cl: 101.6 meq/L
  DBIL: 0.076 mg/dL
  GLC: 216 mg/dL
  IP: 11.1 mg/dL
  K: 3.9 meq/L
  LDH: 238.8 IU/L
  Na: 140.2 meq/L
  PL: 127.2 mg/dL
  RALB: 3.4 g/dL
  TBIL: 0.1 mg/dL
  TC: 65.2 mg/dL
  TG: 54.2 mg/dL
  TP: 5.5 g/dL
  gamma-GTP: 1 IU/L
24 h
  TERMINAL_BW: 238.3 g
  APTT: 20.6 s
  Bas: 0%
  Eos: 1%
  Fbg: 215.6 mg/dL
  Hb: 13.5 g/dL
  Ht: 39%
  Lym: 82%
  MCH: 21.8 pg
  MCHC: 34.8%
  MCV: 62.7 fL
  Mono: 2.8%
  Neu: 13.6%
  PT: 12.6 s
  Plat: 123.8 x10_4/uL
  RBC: 620.8 x10_4/ul
  Ret: 6.6%
  WBC: 103.6 x10_2/uL
  KIDNEY_L: 1 g
  KIDNEY_R: 1 g
  KIDNEY_TOTAL: 2 g
  LIVER: 11.1 g
  A/G: 1.7
  ALP: 1108.2 IU/L
  ALT: 34.2 IU/L
  AST: 66.4 IU/L
  BUN: 13.8 mg/dL
  CRE: 0.4 mg/dL
  Ca: 10.8 mg/dL
  Cl: 102.8 meq/L
  DBIL: 0.084 mg/dL
  GLC: 203.8 mg/dL
  IP: 7.1 mg/dL
  K: 3.9 meq/L
  LDH: 243 IU/L
  Na: 140.6 meq/L
  PL: 141 mg/dL
  RALB: 3.4 g/dL
  TBIL: 0.1 mg/dL
  TC: 65 mg/dL
  TG: 110.4 mg/dL
  TP: 5.5 g/dL
  gamma-GTP: 0.6 IU/L
